From patent EP1536235A2, “Method for detecting environmental pollution using 14-3-3 proteins as biomarkers” (MÜLLER, Werner E. G., priority 1998, dated 1999)

Key:
14-3-3 [1] = assay: Northern blotting of 14-3-3 mRNA after exposure of the sponge; format: in vivo, G. cydonium; conditions: PCB 118 2 µg/g, 17 beta-Östradiol 20 ng/g, alone or in combination; 17 beta-Östradiol = 100% reference value; incubation 3 or 6 days; not detectable without agents
From the text: (§1) Für eine Quantifizierung der mRNA für 14-3-3 mittels Northern-Blotting Verfahren werden Gensonden hergestellt, die von den konservierten Anfangsbereichen [aa45-aa57] bis zu den konservierten Endbereichen [aa214-aa234] des 14-3-3 Proteins reichen (ABB. 2). Als Methodik wird die PCR-Klonierung eingesetzt. Die erhaltenen APPROX 500 bp langen Sonden eignen sich erfahrungsgemäß gut für Northern-Blotting-Untersuchungen.
(§2) Die quantitative Auswertung der Signale kann zum Beispiel mit Hilfe des Chemilumineszenz-Verfahrens (Stanley und Kricka, Bioluminescence and chemiluminescence: current status. John Wiley & Sons, New York, 1990) in Verbindung mit einem Phospholmager (z. B. GS-525 Molecular Imager der Firma Bio-Rad) erfolgen; Dinatrium 2-Chlor-5-(4-methoxyspiro 1,2-dioxetane-3,2'-(5'-chlor)-tricyclo[3.3.1.13,7]decan-4-yl)phenyl-phosphat (CDP) wird hierfür als Substrat angewandt.
Durchfiihrung: • (a) Exposition von G. cydonium gegenüber PCB 118: 1 ml PCB 118 (0.1 mg/ml in Kornöl) wurde in […] Schwammgewebe injiziert. Die Proben wurden in Seewasser für bis zu 6 Tage in 20 1 Aquarien bei 17°C unter kontinuierlicher Belüftung inkubiert; das Wasser wurde einmal am Tag 2 gewechselt. Aliquote Teile des Gewebes (ungefähr je 200 mg) wurden zum Zeitpunkt Null oder nach einer Inkubationszeit von 0.5, 1, 3, 5 und 6 Tagen entnommen. […]

14-3-3 Protein = assay: ELISA quantification of 14-3-3 protein in liver after i.p. injection; conditions: liver after 5 days, Kontrolle 0,12
Procedure: Vorgegangen wurde hierbei nach den Instruktionen des Herstellers. Überschüssige Maleimidgruppen auf den Platten wurden durch einstündige Inkubation der Platten mit einer Cysteinlösung (10 µg/ml) blockiert.
Die Durchführung erfolgt in folgenden Schritten: • Variante 1 • 1a. Inkubation der Streptavidin-beschichteten Mikrotiterplatten mit dem Biotingekoppelten Peptid. • 2a. Zugabe von 100 µl Extrakt aus den untersuchten Tiergeweben in die Wells nach Bindung des Peptids über Biotin und Streptavidin. Oder: • 1a. Inkubation der Extrakte aus den untersuchten Tiergeweben mit dem Biotingekoppelten Peptid. • 2a. Zugabe von 100 µl der Inkubationsmischungen nach Bindung des Biotin-Peptids an 14-3-3 in die Wells. • 3. Waschen. • 4. Quantifizierung der Peptid-14-3-3 Komplexe über markierte Antikörper. Als Markierung kann zum Beispiel die alkalische Phosphatase verwendet werden; als Substrat zum Nachweis dient dann 5-Brom-4-Chlor-3-Indolylphosphat/Nitroblau-Tetrazolium. • 5. Detektion mittels eines ELISA-Platten-Readers. • Variante 2 • 1. Zugabe von 100 µl Extrakt in die Wells der Mikrotiterplatten mit dem gekoppelten Peptid und Inkubation. • 2. Waschen. • 3. Quantifizierung der Peptid-14-3-3 Komplexe über markierte Antikörper (siehe Variante 1). • 4. Detektion mittels eines ELISA-Platten-Readers.
Die in Tabelle 1 angegebenen Mengen an PCB 77, PCB 118 und PCB 153 wurden nach Auflösung in Kornöl in Klieschen (Limanda limanda) injiziert. […] Nach den angegebenen Zeiträumen wurde den Tieren die Leber entnommen und sofort eingefroren. Die Bestimmung des Gehalts an 14-3-3 in den Lebern erfolgte nach Homogenisation durch Mörsern der gefrorenen Gewebeproben in dem dreifachen Volumen an Phosphat-Puffer mit 1 mM EDTA und 1 mM Phenylmethylsulfonylfluorid.

14-3-3 [2] = assay: Keeping experiments with PCB 118: 14-3-3 expression by Northern and Western blotting; format: in vivo, Geodia cydonium; conditions: 2 µg PCB 118/g wet weight, 0,5 to 6 days; Northern (mRNA) and Western blotting (protein)
From the text: as §1, §2
Der Nachweis der Expression von 14-3-3 auf Protein-Ebene erfolgt mittels Antikörper. Entweder können kommerzielle (z. B. von der Firma Calbiochem/Oncogene) oder gegen das rekombinante Invertebraten-Protein 14-3-3 aus Geodia cydonium gezogene Antikörper eingesetzt werden. Zur Quantifizierung der 14-3-3 Proteine werden Western-Blots mit Extrakten des Bioindikators hergestellt. Die Signale können wieder unter Anwendung des Chemilumineszenz-Verfahrens quantifiziert werden. Die Gewebeextrakte können z. […]

[3] = i.p. 0.03 mg PCB pro kg Limanda limanda

SMILES | Niveau der mRNA von 14-3-3 (14-3-3 [1]) [%] | 14-3-3 Protein (OD-Einheit) (14-3-3 Protein; [3]) | other results
C[C@]12CC[C@@H]3c4ccc(O)cc4CC[C@H]3[C@@H]1CC[C@@H]2O [17 beta-Östradiol] | 100 | – | –
[Cd] [Cadmium] | – | – | 14-3-3 Protein (OD-Einheit) (14-3-3 Protein; Cadmium 0,01 mg/kg i.p.): 0,30 OD-Einheit; 14-3-3 Protein (OD-Einheit) (14-3-3 Protein; Cadmium 0,1 mg/kg i.p.): 0,98 OD-Einheit; 14-3-3 Protein (OD-Einheit) (14-3-3 Protein; Cadmium 0,03 mg/kg i.p.): 0,75 OD-Einheit
Clc1ccc(-c2ccc(Cl)c(Cl)c2)cc1Cl [PCB77, PCB 77] | – | 0,97 OD-Einheit | –
Clc1cc(Cl)c(-c2cc(Cl)c(Cl)cc2Cl)cc1Cl [PCB153, PCB 153] | – | 0,81 OD-Einheit | –
Clc1ccc(-c2cc(Cl)c(Cl)cc2Cl)cc1Cl [PCB 118] | 30 | 0,74 OD-Einheit | Expression des 14-3-3-Gens (14-3-3 [2]): von nicht nachweisbar auf sehr hohe Werte induziert
